{
  "source": "ChEMBL document CHEMBL1131275",
  "about": "“Synthesis and structure-activity relationships of CP-122,721, a second-generation NK-1 receptor antagonist” (Bioorg Med Chem Lett, 1998)",
  "key": {"[1]": {"target": "Substance-P receptor (Homo sapiens, UniProt P25103)", "sequence (P25103 whole entry)": "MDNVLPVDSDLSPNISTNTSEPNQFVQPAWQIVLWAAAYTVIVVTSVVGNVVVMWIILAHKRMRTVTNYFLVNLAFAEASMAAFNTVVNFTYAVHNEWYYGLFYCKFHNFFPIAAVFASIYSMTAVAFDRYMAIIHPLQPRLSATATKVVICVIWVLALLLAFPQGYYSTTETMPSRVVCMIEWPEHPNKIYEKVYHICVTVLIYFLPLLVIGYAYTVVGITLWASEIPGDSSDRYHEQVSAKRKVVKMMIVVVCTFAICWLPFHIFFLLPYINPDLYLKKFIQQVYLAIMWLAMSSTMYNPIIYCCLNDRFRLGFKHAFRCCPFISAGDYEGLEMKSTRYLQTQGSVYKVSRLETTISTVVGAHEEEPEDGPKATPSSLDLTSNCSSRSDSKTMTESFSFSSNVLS", "assay": "Antagonist activity for Tachykinin receptor 1 as displacement of [3H]-Substance P in human IM-9 cells", "assay_type": "functional, cell-based"}, "[2]": {"species": "Cavia porcellus", "assay": "Inhibition of aerosolized capsaicin-induced plasma protein extravasation in guinea pig ureter by peroral dose", "assay_type": "functional", "conditions": "read-out: ID50 (the source's name)"}, "[3]": {"system": "Cavia porcellus", "assay": "Compound was tested for blockade of locomotor activity in the guinea pig elicited by icv administered Sar9Met(O2)-SP", "assay_type": "functional", "conditions": "central, read-out: ID50 (the source's name)"}, "[4]": {"species": "Cavia porcellus", "assay": "Compound tested for SP-induced plasma extravasation in guinea pig perorally", "assay_type": "functional", "conditions": "po, read-out: ID50 (the source's name)"}, "[5]": {"species": "Cavia porcellus", "assay": "Inhibition of aerosolized capsaicin-induced plasma protein extravasation in guinea pig lung by peroral dose", "assay_type": "functional", "conditions": "read-out: ID50 (the source's name)"}, "[6]": {"species": "Cavia porcellus", "assay": "Inhibition of capsaicin-induced plasma extravasation in guinea pig ureter by peroral dose", "assay_type": "functional", "conditions": "po, read-out: ID50 (the source's name)"}, "[7]": {"system": "Cavia porcellus", "assay": "Compound was tested for blockade of locomotor activity in guinea pig, elicited by icv administered Sar9Met(O2)-SP", "assay_type": "functional", "conditions": "central, read-out: ID50 (the source's name)"}, "[8]": {"species": "Cavia porcellus", "assay": "Compound tested for blockade of cisplatin-induced emesis in guinea pig perorally", "assay_type": "functional", "conditions": "po, read-out: ID50 (the source's name)"}},
  "data": [
    {"smiles": "CC(C)Oc1ccc(OC(F)(F)F)cc1CN[C@H]1CCCN[C@H]1c1ccccc1", "values": [
      {"measurement": "IC50", "setting": "[1]", "result": 0.18, "unit": "nM"}
    ]},
    {"smiles": "COc1ccc(N(C)S(C)(=O)=O)cc1CN[C@H]1CCCN[C@H]1c1ccccc1", "values": [
      {"measurement": "IC50", "setting": "[1]", "result": 0.11, "unit": "nM"}
    ]},
    {"smiles": "CCOc1ccc(OC(F)(F)F)cc1CN[C@H]1CCCN[C@H]1c1ccccc1", "values": [
      {"measurement": "IC50", "setting": "[1]", "result": 0.14, "unit": "nM"}
    ]},
    {"smiles": "FC(F)Oc1ccccc1CN[C@H]1CCCN[C@H]1c1ccccc1", "values": [
      {"measurement": "IC50", "setting": "[1]", "result": 0.41, "unit": "nM"}
    ]},
    {"smiles": "COc1ccccc1CN[C@H]1CCCN[C@H]1c1ccccc1", "note": "[CP-99994]", "values": [
      {"measurement": "ED50", "setting": "[2]", "result": 2.9, "unit": "mg/kg"},
      {"measurement": "ED50", "setting": "[3]", "result": 0.6, "unit": "mg/kg"},
      {"measurement": "ED50", "setting": "[4]", "result": 31, "unit": "mg/kg"},
      {"measurement": "ED50", "setting": "[5]", "result": 5, "unit": "mg/kg"}
    ]},
    {"smiles": "COc1ccc(OC(F)(F)F)cc1CN[C@H]1CCCN[C@H]1c1ccccc1", "values": [
      {"measurement": "ED50", "setting": "[6]", "result": 0.02, "unit": "mg/kg"},
      {"measurement": "ED50", "setting": "[7]", "result": 0.01, "unit": "mg/kg"},
      {"measurement": "ED50", "setting": "[4]", "result": 0.05, "unit": "mg/kg"},
      {"measurement": "ED50", "setting": "[8]", "result": 0.08, "unit": "mg/kg"},
      {"measurement": "ED50", "setting": "[5]", "result": 0.01, "unit": "mg/kg"}
    ]},
    {"smiles": "CC(C)Oc1ccccc1CN[C@H]1CCCN[C@H]1c1ccccc1", "values": [
      {"measurement": "IC50", "setting": "[1]", "result": 0.46, "unit": "nM"}
    ]},
    {"smiles": "FC(F)(F)Oc1ccccc1CN[C@H]1CCCN[C@H]1c1ccccc1", "values": [
      {"measurement": "IC50", "setting": "[1]", "result": 0.8, "unit": "nM"}
    ]},
    {"smiles": "Oc1ccc(OC(F)(F)F)cc1CN[C@H]1CCCN[C@H]1c1ccccc1", "values": [
      {"measurement": "IC50", "setting": "[1]", "result": 10.9, "unit": "nM"}
    ]},
    {"smiles": "COc1ccc(OC)c(CN[C@H]2CCCN[C@H]2c2ccccc2)c1", "values": [
      {"measurement": "IC50", "setting": "[1]", "result": 0.09, "unit": "nM"}
    ]},
    {"smiles": "COc1ccc(Cl)cc1CN[C@H]1CCCN[C@H]1c1ccccc1", "values": [
      {"measurement": "IC50", "setting": "[1]", "result": 0.14, "unit": "nM"}
    ]},
    {"smiles": "COc1ccc(N(C)C)cc1CN[C@H]1CCCN[C@H]1c1ccccc1", "values": [
      {"measurement": "IC50", "setting": "[1]", "result": 0.56, "unit": "nM"}
    ]}
  ]
}
